Like-named read-outs stand apart in the source and are kept apart here.
What was measured:
THP-1 cells = assay: In vitro cellular accumulation; type: cell-based; conditions: 24 h, 10 to 75 μg/ml
Experimental: THP-1 cells (TIB-202; ATCC, Manassas, VA; 1 × 10^6 cells/well) were differentiated into macrophages by incubating in 10% fetal bovine serum (FBS; HyClone, Marlborough, MA) supplemented RPMI 1640 medium (HyClone) with 50 ng/ml of phorbol 12-myristate 13-acetate (PMA; Sigma-Aldrich, St. Louis, MO) for 24 h. After a 24 h incubation in fresh medium, cells were treated with RV lipoglycopeptides or comparator drugs at target concentrations in the range of 10 to 75 μg/ml and incubated at 37°C for 24 h. For sample collection, mixtures of cells and medium were transferred into a 1.5-ml microcentrifuge tube followed by centrifugation at 330 × g for 8 min at 4°C. The supernatant was collected to measure the extracellular portion. After washing three times using 1 ml of tris-buffered saline (TBS, 1× solution, pH 7.4, Fisher BioReagents, Waltham, MA), the cell pellet was resuspended in TBS to measure the cellular drug concentration. To confirm mass balance, drug concentrations were also measured from the supernatant and an organic solvent mixture (30% acetonitrile in water) that was used to extract residual drug from the empty wells after the cell mixture was removed. […] Cellular accumulation was expressed as μg of drug per the mass of cell protein measured using a Pierce BCA protein assay kit (Thermo Scientific, Waltham, MA).

[1] = type: physicochemical; conditions: pH 8
Experimental: (§1) 40 to the primary metabolite.
(§2) 41 percent degradation is defined as follows:
(§3) [LLLLPPLL ] + [MMPPPPDDMM DDMMDDPPPP ]
(§4) 45 Enzymes studied include :
(§5) 108 Table S1: Enzyme hydrolysis of RV62 and RV94 was measured as a function of time in PBS (pH 8) at 37
(§6) 109 °C. Control samples in the absence of enzyme were included as […]. Samples were analyzed
(§7) 110 by HPLC detecting the parent RV derivative (RV62 or RV94).
(§8) RV Percent RV derivative remaining in HPLC chromatograph, % […]

Protease from Papain = biological target: T1, Protease from Papain (Carica papaya, UniProt P00784); assay: Enzyme hydrolysis; type: in vitro ADME; conditions: Papain 5 U/mL
T1 construct: purchased Sigma Aldrich P4762; host or cells: papaya latex
T1 sequence (P00784 134-345): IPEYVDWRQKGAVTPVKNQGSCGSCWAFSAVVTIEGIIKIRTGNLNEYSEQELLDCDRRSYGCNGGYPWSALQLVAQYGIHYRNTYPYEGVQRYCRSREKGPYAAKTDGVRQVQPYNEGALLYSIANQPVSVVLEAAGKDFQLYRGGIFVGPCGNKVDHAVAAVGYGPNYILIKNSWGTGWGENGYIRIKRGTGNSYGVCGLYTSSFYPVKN
Experimental: as §1, §2, §3, §4, §5, §6, §7, §8

[2] = biological target: T2, Protease from Bacillus Lichenformis (Bacillus licheniformis, UniProt P00780); assay: Enzyme hydrolysis; type: in vitro ADME; conditions: Bacillus Lichenformis protease 5 U/mL
T2 construct: purchased Sigma Aldrich P5380; host or cells: Bacillus licheniformis
T2 sequence (P00780 106-379): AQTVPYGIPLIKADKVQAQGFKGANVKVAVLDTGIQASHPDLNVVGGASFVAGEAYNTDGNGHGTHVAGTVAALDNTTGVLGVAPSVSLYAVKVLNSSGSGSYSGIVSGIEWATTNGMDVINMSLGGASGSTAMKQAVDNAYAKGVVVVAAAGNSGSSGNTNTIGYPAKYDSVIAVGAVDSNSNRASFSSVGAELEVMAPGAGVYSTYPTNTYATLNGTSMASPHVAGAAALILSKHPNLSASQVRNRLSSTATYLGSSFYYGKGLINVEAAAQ
Experimental: as §1, §2, §3, §4, §5, §6, §7, §8

SMILES: CCCCCCCCCCNC(=O)CNC1(C)CC(OC2C(Oc3c4cc5cc3Oc3ccc(cc3Cl)C(O)C3NC(=O)C(NC(=O)C5NC(=O)C(CC(N)=O)NC(=O)C(NC(=O)C(CC(C)C)NC)C(O)c5ccc(c(Cl)c5)O4)c4ccc(O)c(c4)-c4c(O)cc(O)cc4C(C(=O)O)NC3=O)OC(CO)C(O)C2O)OC(C)C1O (centres unmarked) [RV94]
- Cellular accumulation, fold improvement over telavancin (THP-1 cells): 4 fold
- Cellular accumulation, fold improvement over vancomycin (THP-1 cells): 2 fold
- Percent RV derivative remaining in HPLC chromatograph ([1]; 0 h): 99.74%
- Percent RV derivative remaining in HPLC chromatograph ([1]; 1 h): 99.54%
- Percent RV derivative remaining in HPLC chromatograph ([1]; 24 h): 98.89%
- Percent RV derivative remaining in HPLC chromatograph (Protease from Papain; 1 h): 99.39%
- Percent RV derivative remaining in HPLC chromatograph (Protease from Papain; 24 h): 98.31%
- Percent RV derivative remaining in HPLC chromatograph (Protease from Papain; PBS pH 8, 37 °C, 0 h): 99.46%
- Percent RV derivative remaining in HPLC chromatograph ([2]; 1 h): 99.47%
- Percent RV derivative remaining in HPLC chromatograph ([2]; 24 h): 99.43%
- Percent RV derivative remaining in HPLC chromatograph ([2]; PBS pH 8, 37 °C, 0 h): 99.76%

— PMC8373216, “Development and Preclinical Evaluation of New Inhaled Lipoglycopeptides for the Treatment of Persistent Pulmonary Methicillin-Resistant Staphylococcus aureus Infections” (Antimicrobial Agents and Chemotherapy, 2021)
